For one compound, IC50 results are on record in US20230405140A1, “ANTI-CD56 ANTIBODY-DRUG CONJUGATES AND THEIR USE IN THERAPY” (MCSAF INSIDE ONCOLOGY, priority 2020, published 2023).

Non-standard residues stand in square brackets, D forms with d. Residues, ends and D or L forms follow the SMILES beside them. *: point of attachment. Dolaproine = CO[C@@H]([C@@H]1CCCN1)[C@@H](C)C(=O)O; Dil = CC[C@H](C)[C@H](NC)[C@@H](CC(=O)O)OC; X1 = C[C@@H](N*)[C@@H](O)c1ccccc1; NMeV = CN[C@H](C(=O)O)C(C)C

What all share (assay): XTT assay, ADC-mediated cytotoxicity
Common to all, as to format: cell-based
In general terms: Formazan colour is commonly taken as a measure of viable cells.

The subject of one experiment is WaGa. Particulars: 4 days, read-out: WaGa n = 3 IC50. As for the experimental part:
(§1) To evaluate cell viability and cellular metabolic activity, XTT assays were performed according to standard protocols. WaGa, PeTa, H69, H209, H660 cell lines were plated in 3 replicates in a 96-well plate with 5.10^4 cells/well. […] Untreated cells were used as viability reference. Cells treated with 1% Triton X100 were used as cell death positive control. After 4 days, 25 μL XTT reagent at 1 mg/mL (Alfa Aesar, thermo Fisher) with N-methyl dibenzopyrazine methyl sulfate (PMS) activator (25 μM) was added per well and absorbance was measured at 450 nm after 4 h incubation. Absorbance at 620 nm was used as a reference. Three independent experiments have been performed.

A further experiment has as its system H209. Particulars: 4 days, read-out: H209 n = 3 IC50. As to the method: as §1
In another experiment the test system is WaGa CRISPR CD56. Particulars: 4 days, CD56− cells, read-out: WaGa CRISPR CD56 n = 3 IC50. As to the method: as §1
In another experiment the test system is PeTa. Particulars: 4 days, read-out: PeTa n = 3 IC50. As to the method: as §1
In the next experiment the test system is H69. Particulars: 4 days, read-out: H69 n = 3 IC50. As for the experimental part:
as §1

The next experiment relates to MKL-1 CRISPR CD56. Particulars: 4 days, CD56− cells, read-out: MKL-1 CRISPR CD56 n = 3 IC50.

With `CC[C@H](C)[C@@H]([C@@H](CC(=O)N1CCC[C@H]1[C@H](OC)[C@@H](C)C(=O)N[C@H](C)[C@@H](O)c1ccccc1)OC)N(C)C(=O)[C@@H](NC(=O)[C@@H](NC)C(C)C)C(C)C` [MMAE, monomethyl auristatin E, reference compound] (H-[NMeV]V[Dil][Dolaproine]-X1), the IC50 – broadly, the point on the concentration scale where inhibition reaches its midpoint – in the experiment on WaGa came out at 3.07 nM; with H209 it was 2.24 nM; in the experiment with WaGa CRISPR CD56, 0.942 nM; with PeTa, 1.11 nM; in the experiment on H69, 0.888 nM; in the experiment on MKL-1 CRISPR CD56 it was 0.856 nM.
